According to US12065430B2, “Indazole compound or salt thereof” (TAIHO PHARMACEUTICAL CO., LTD., priority 2018, dated 2024):

Tests used:
G12C K-Ras4B (1-169) = G12C K-Ras4B (1-169) (Homo sapiens (Human), UniProt P01116, G12C); test: Test of compounds on whether to bind to KRASG12C (LC-MS compound binding rate); settings: final compound concentration of 2 μM, 1 μM protein, 25° C. for 2 hours
In short: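 K-Ras4B (1-169) WT and G12C (1 μM each, mixed) in 1×TBS, 0.1 mM TCEP incubated with compound (final 2 μM) 2 h at 25° C; quenched with 0.2% formic acid. Intact-protein LC-MS (ESI+, deconvoluted); binding rate = adduct signal/(adduct + unbound signal), giving selectivity over WT.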

NCI-H358 cells = test: Growth inhibition activity on KRAS-G12C mutant cell line (NCI-H358) (in vitro, CellTiter-Glo2.0); assay type: cell-based; settings: Homo sapiens, NCI-H358, 72 h, 3-day culture in the presence of the compound
Experimental: NCI-H358 cells (ATCC, Cat #: CRL-5807), which are a KRAS-G12C mutant human lung cancer cell line, were suspended in a 10% fetal bovine serum-containing RPMI1640 medium (manufactured by Fujifilm Wako Pure Chemical Corporation.). The cell suspension was seeded into each well of a 384-well flat-bottom microplate and cultured in an incubator containing 5% CO2 gas at 37° C. for 1 day. The test compound was dissolved in DMSO, and diluted with DMSO to give a concentration 500 times the final concentration. The solution of the test compound in DMSO was diluted with the medium used for suspending cells and added to each well of the cell-culture plate to give a DMSO final concentration of 0.2%, followed by culture in an incubator containing 5% CO2 gas at 37° C. for another 3 days. The cell count after 3-day culture in the presence of the compound was measured using CellTiter-Glo2.0 (manufactured by Promega Corporation) in accordance with the protocol recommended by Promega Corporation. The growth inhibition rate was calculated from the following equation, and the concentration of the test compound at which 50% inhibition was achieved (IC50 (nM)) was determined. […] Growth Inhibition Rate (%)=(C−T)/(C)×100 • T: the emission intensity in a well into which a test compound was added. • C: the emission intensity in a well into which a test compound was not added.

G12C K-Ras4B (1-169), sequence (P01116 other isoform, or with tags, fused parts or gaps G12C): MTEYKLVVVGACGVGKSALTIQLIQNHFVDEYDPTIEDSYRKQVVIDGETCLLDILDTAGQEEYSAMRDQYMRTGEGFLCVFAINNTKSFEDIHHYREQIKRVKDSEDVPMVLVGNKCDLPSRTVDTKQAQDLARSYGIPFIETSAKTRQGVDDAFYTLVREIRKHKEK

Compound | binding rate for G12C K-Ras4B (1-169) (G12C K-Ras4B (1-169)) | IC50 (NCI-H358 cells) [nM]
C=CC(=O)N1CC(NC(=O)c2c(Cl)nc(CNc3n[nH]c4cc(Cl)c(C(C)(C)C)cc34)n2C2CCN(C)CC2)C1 [Example 103, N-(1-acryloylazetidin-3-yl)-2-(((5-(tert-butyl)-6-chloro-1H-indazol-3-yl)amino)methyl)-4-chloro-1-(1-methylpiperidin-4-yl)-1H-imidazole-5-carboxamide] | A (a binding rate of 80% or more is rated “A,”) | 29
C=CC(=O)N1CC(NC(=O)c2c(C)nc(CNc3n[nH]c4cc(Cl)c(C(C)(C)C)cc34)n2C)C1 [Example 3, N-(1-acryloylazetidin-3-yl)-2-(((5-(tert-butyl)-6-chloro-1H-indazol-3-yl)amino)methyl)-1,4-dimethyl-1H-imidazole-5-carboxamide] | A (a binding rate of 80% or more is rated “A,”) | 114
C=CC(=O)N1CC(NC(=O)c2c(Cl)nc(CNc3n[nH]c4cc(Cl)c(C(C)(C)C)cc34)n2C2CN(C(C)C)C2)C1 [Example 107, N-(1-acryloylazetidin-3-yl)-2-(((5-(tert-butyl)-6-chloro-1H-indazol-3-yl)amino)methyl)-4-chloro-1-(1-isopropylazetidin-3-yl)-1H-imidazole-5-carboxamide] | A (a binding rate of 80% or more is rated “A,”) | 78
C=CC(=O)N1CC(NC(=O)c2c(C(F)F)nc(CNc3n[nH]c4cc(Cl)c(C(C)(C)C)cc34)n2C2CCN(C(C)C)C2)C1.O=CO (stereo not shown) [Example 93, N-(1-acryloylazetidin-3-yl)-2-(((5-(tert-butyl)-6-chloro-1H-indazol-3-yl)amino)methyl)-4-(difluoromethyl)-1-(1-isopropylpyrrolidin-3-yl)-1H-imidazole-5-carboxamide formate] | A (a binding rate of 80% or more is rated “A,”) | 40
C=CC(=O)N1C[C@@H](C)[C@@H](NC(=O)c2c(Cl)nc(CNc3n[nH]c4cc(Cl)c(C(C)(C)C)cc34)n2C)C1 [Example 78, N-((3R,4R)-1-acryloyl-4-methylpyrrolidin-3-yl)-2-(((5-(tert-butyl)-6-chloro-1H-indazol-3-yl)amino)methyl)-4-chloro-1-methyl-1H-imidazole-5-carboxamide] | B (a binding rate of 60% or more and less than 80% is rated “B,”) | 350
C=CCN1CC[C@@H](n2c(CNc3n[nH]c4cc(Cl)c(C(C)(C)C)cc34)nc(Cl)c2C(=O)NC2CN(C(=O)C=C)C2)C1 [Example 123, (R)—N-(1-acryloylazetidin-3-yl)-1-(1-allylpyrrolidin-3-yl)-2-(((5-(tert-butyl)-6-chloro-1H-indazol-3-yl)amino)methyl)-4-chloro-1H-imidazole-5-carboxamide] | A (a binding rate of 80% or more is rated “A,”) | 21
C=CC(=O)N1CC(NC(=O)c2c(Cl)nc(CNc3n[nH]c4cc(Cl)c(C(C)(C)C)cc34)n2C(C)C)C1 [Example 35, N-(1-acryloylazetidin-3-yl)-2-(((5-(tert-butyl)-6-chloro-1H-indazol-3-yl)amino)methyl)-4-chloro-1-isopropyl-1H-imidazole-5-carboxamide] | B (a binding rate of 60% or more and less than 80% is rated “B,”) | 67
C=CC(=O)N1CC(NC(=O)c2c(Cl)nc(CNc3n[nH]c4cc(Cl)c(C(C)(C)C)cc34)n2[C@H]2CCOC2)C1 [Example 97, (S)—N-(1-acryloylazetidin-3-yl)-2-(((5-(tert-butyl)-6-chloro-1H-indazol-3-yl)amino)methyl)-4-chloro-1-(tetrahydrofuran-3-yl)-1H-imidazole-5-carboxamide] | A (a binding rate of 80% or more is rated “A,”) | 52
C=CC(=O)N1C[C@H](NC(=O)c2c(C(F)F)nc(CNc3n[nH]c4cc(Cl)c(C(C)(C)C)cc34)n2C)[C@@H](F)C1 [Example 70, N-((3S,4S)-1-acryloyl-4-fluoropyrrolidin-3-yl)-2-(((5-(tert-butyl)-6-chloro-1H-indazol-3-yl)amino)methyl)-4-(difluoromethyl)-1-methyl-1H-imidazole-5-carboxamide] | A (a binding rate of 80% or more is rated “A,”) | –
C=CC(=O)N1C[C@@H](CC)[C@@H](NC(=O)c2c(C)nc(CNc3n[nH]c4cc(Cl)c(C(C)(C)C)cc34)n2C)C1 [Example 69, N-((3R,4R)-1-acryloyl-4-ethylpyrrolidin-3-yl)-2-(((5-(tert-butyl)-6-chloro-1H-indazol-3-yl)amino)methyl)-1,4-dimethyl-1H-imidazole-5-carboxamide] | E (a binding rate of less than 20% is rated “E.”) | –
C=CC(=O)N1CC(NC(=O)c2c(CC)nc(CNc3n[nH]c4cc(Cl)c(C(C)(C)C)cc34)n2C)C1 [Example 31, N-(1-acryloylazetidin-3-yl)-2-(((5-(tert-butyl)-6-chloro-1H-indazol-3-yl)amino)methyl)-4-ethyl-1-methyl-1H-imidazole-5-carboxamide] | D (a binding rate of 20% or more and less than 40% is rated “D,”) | –
C=CC(=O)N1CC(NC(=O)c2c(Cl)nc(CNc3n[nH]c4cc(Cl)c(C(C)(C)C)cc34)n2CC2CCCC2)C1 [Example 110, N-(1-acryloylazetidin-3-yl)-2-(((5-(tert-butyl)-6-chloro-1H-indazol-3-yl)amino)methyl)-4-chloro-1-(cyclopentylmethyl)-1H-imidazole-5-carboxamide] | A (a binding rate of 80% or more is rated “A,”) | –
C=CC(=O)N1C[C@H](NC(=O)c2c(C)nc(CNc3n[nH]c4cc(Cl)c(C(C)(C)C)cc34)n2C)[C@@H](C)C1 [Example 60, N-((3R,4S)-1-acryloyl-4-methylpyrrolidin-3-yl)-2-(((5-(tert-butyl)-6-chloro-1H-indazol-3-yl)amino)methyl)-1,4-dimethyl-1H-imidazole-5-carboxamide] | C (a binding rate of 40% or more and less than 60% is rated “C,”) | –
C=CC(=O)N1CC(NC(=O)c2cnc(CNc3n[nH]c4cc(Cl)c(C(C)(C)C)cc34)s2)C1 [Example 8, N-(1-acryloylazetidin-3-yl)-2-(((5-(tert-butyl)-6-chloro-1H-indazol-3-yl)amino)methyl)thiazole-5-carboxamide] | B (a binding rate of 60% or more and less than 80% is rated “B,”) | –
CC(C)n1c(CNc2n[nH]c3cc(Cl)c(C(C)(C)C)cc23)nc(C(F)F)c1C(=O)NC1CN(C(=O)/C=C/CN(C)C)C1 [Example 84, (E)-2-(((5-(tert-butyl)-6-chloro-1H-indazol-3-yl)amino)methyl)-4-(difluoromethyl)-N-(1-(4-(dimethylamino)but-2-enoyl)azetidin-3-yl)-1-isopropyl-1H-imidazole-5-carboxamide] | C (a binding rate of 40% or more and less than 60% is rated “C,”) | –
C=CC(=O)N1CC(NC(=O)c2c(Cl)nc(CNc3n[nH]c4cc(Cl)c(C(C)(C)C)cc34)n2[C@@H]2CCN(Cc3ccccc3)C2)C1 [Example 122, (R)—N-(1-acryloylazetidin-3-yl)-1-(1-benzylpyrrolidin-3-yl)-2-(((5-(tert-butyl)-6-chloro-1H-indazol-3-yl)amino)methyl)-4-chloro-1H-imidazole-5-carboxamide] | A (a binding rate of 80% or more is rated “A,”) | –
C=CC(=O)N1CC(NC(=O)c2c(Cl)nc(CNc3n[nH]c4cc(Cl)c(C(C)(C)C)cc34)n2CCOC)C1 [Example 90, N-(1-acryloylazetidin-3-yl)-2-(((5-(tert-butyl)-6-chloro-1H-indazol-3-yl)amino)methyl)-4-chloro-1-(2-methoxyethyl)-1H-imidazole-5-carboxamide] | A (a binding rate of 80% or more is rated “A,”) | –
C=CC(=O)N1CC(NC(=O)c2c(C)c(CNc3n[nH]c4cc(Cl)c(C(C)(C)C)cc34)nn2C)C1 [Example 10, N-(1-acryloylazetidin-3-yl)-3-(((5-(tert-butyl)-6-chloro-1H-indazol-3-yl)amino)methyl)-1,4-dimethyl-1H-pyrazole-5-carboxamide] | B (a binding rate of 60% or more and less than 80% is rated “B,”) | –
C=CC(=O)N1C[C@H](NC(=O)c2c(C)nc(CNc3n[nH]c4cc(Cl)c(C(C)(C)C)cc34)n2C)C2(CC2)C1 [Example 54, (R)—N-(5-acryloyl-5-azaspiro[2.4]heptan-7-yl)-2-(((5-(tert-butyl)-6-chloro-1H-indazol-3-yl)amino)methyl)-1,4-dimethyl-1H-imidazole-5-carboxamide] | B (a binding rate of 60% or more and less than 80% is rated “B,”) | –
C=CC(=O)N1CC(NC(=O)c2cnc(CNc3n[nH]c4cc(Cl)c(Br)cc34)n2C)C1 [Reference Example 1, N-(1-acryloylazetidin-3-yl)-2-(((5-bromo-6-chloro-1H-indazol-3-yl)amino)methyl)-1-methyl-1H-imidazole-5-carboxamide, reference compound] | E (a binding rate of less than 20% is rated “E.”) | –
